Measured values from patent US9642835B2, “Modulators of GTPase and use in relevant treatment” (STC.UNM, priority 2010, dated 2017).
Read-outs that look alike come from different tables or passages of the source.

How the values were obtained:
[1] = target: T1, Cdc42 WT (Homo sapiens, UniProt P60953); assay: Bead-based flow cytometry dose response, BODIPY-FL-GTP binding; settings: for EC50: read-out: Cdc42 WT EC50; for Emax: read-out: Cdc42 WT Efficacy
T1 construct: purchased Cytoskeleton
Experimental: (§1) Bead sets for multiplex assays were custom synthesized by Duke Scientific Corp (Fremont, Calif.), but may now be ordered from Thermo/Fisher. […] Negative controls, contained the bead mixture with fluorescent GTP, 0.5 mM unlabeled GTP as a competitor, and 1% DMSO. […] The resulting time-dependent data (one file per plate) were analyzed using IDLQuery software to determine the compound activity in each well. Gating based on forward scatter (FS) and side scatter (SS) parameters was used to identify singlet bead populations. Gating based on FL8 emission distinguishes the beads coated with different proteins, and the median fluorescence per bead population was calculated. […] Baselines were set to 100% based on measurements from the 1% DMSO containing positive controls as further described in PubChem. {PubChem #72}
(§2) Briefly, compounds were serially diluted 1:3 a total of eight times from a starting concentration of 10 mM giving a 9-point dilution series in DMSO. The final concentrations of inhibitors in the assay ranged from 10 nM to 100 μM. Dose-response analyses were examined in the presence of NP-HPS buffer containing: a) 1 mM EDTA; or b) 1 mM MgCl2. […] For assays with EDTA we used one multiplex (Rab7 wt, Rab2 wt, H-Ras wt, H-RasG12V, Cdc42 wt, and Cdc42Q61L) and 3 single-plexes (for Rac1 wt, Rac1 Q61L and GST-GFP).
(§3) GTPase activators were identified on the basis of an increase in fluorescent GTP-binding.
(§4) In experiments including magnesium, six GST-GTPases were assayed simultaneously in a single multiplex (Rac1 wt, Rac1Q61L, RhoA wt, RhoAL63, Cdc42 wt and Cdc42Q61L) and 1 nM BODIPY-FL-GTP binding was measured in the presence or absence of the serial drug dilution series. Each dose response series was run in duplicate.

[2] = target: Cdc42 ACT (Cdc42Q61L) (Homo sapiens, UniProt P60953, Q61L); assay: as above
Cdc42 ACT (Cdc42Q61L), sequence (P60953 whole entry Q61L): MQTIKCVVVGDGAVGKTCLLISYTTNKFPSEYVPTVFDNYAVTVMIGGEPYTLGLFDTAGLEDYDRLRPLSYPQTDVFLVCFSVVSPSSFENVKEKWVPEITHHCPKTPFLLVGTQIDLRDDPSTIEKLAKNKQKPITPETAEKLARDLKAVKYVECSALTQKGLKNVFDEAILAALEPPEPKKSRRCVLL
Experimental: as §1, §2, §3, §4

[3] = Table 5, R2 analogs, read-out: Cdc42 ACT EC50
[4] = Table 6, R3 analogs, read-out: Cdc42 ACT EC50

T1 sequence (P60953 whole entry): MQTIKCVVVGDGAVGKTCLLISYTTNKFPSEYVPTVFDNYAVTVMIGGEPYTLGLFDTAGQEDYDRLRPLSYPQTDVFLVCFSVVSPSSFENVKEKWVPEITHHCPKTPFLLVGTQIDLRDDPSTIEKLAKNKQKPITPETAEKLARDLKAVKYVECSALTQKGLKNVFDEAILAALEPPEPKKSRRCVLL

| Structure (SMILES) | EC50 ([1]; Table 5, R2 analogs) | Emax ([1]; Table 5, R2 analogs) | EC50 [2, 3] | EC50 ([1]; Table 6, R3 analogs) | Emax ([1]; Table 6, R3 analogs) | EC50 [2, 4] | EC50 [2] | Cdc42 WT Efficacy ([1]; Table 5, R2 analogs) |
| --- | --- | --- | --- | --- | --- | --- | --- | --- |
| COc1ccc(C2CC(C)=NN2c2ccc(S(N)(=O)=O)cc2)cc1 (stereo not drawn) [CID 14870296] | > 100 µM | 17% | > 100 µM | – | – | – | – | – |
| COc1ccccc1C1CC(c2ccccc2)=NN1c1ccc(S(N)(=O)=O)cc1 (stereo not drawn) [CID 42628035] | – | – | – | 22.5 µM | 45% | 78.9 µM | – | – |
| Cc1ccccc1C1CC(c2ccccc2)=NN1c1ccc(S(N)(=O)=O)cc1 (stereo not drawn) [CID 44143704] | – | – | – | 16.6 µM | 55% | 13.6 µM | – | – |
| COc1ccc(C2CC(c3cccs3)=NN2c2ccc(S(N)(=O)=O)cc2)cc1 (stereo not drawn) [CID 44143712] | 2.9 µM | 57% | – | – | – | – | 4 µM | – |
| NS(=O)(=O)c1ccc(N2N=C(c3ccccc3)CC2c2ccccc2)cc1 (stereo not drawn) [CID 2837695] | – | – | – | 31.6 µM | 56% | 16.8 µM | – | – |
| NS(=O)(=O)c1ccc(N2N=C(c3ccccc3)CC2c2cccc(Br)c2)cc1 (stereo not drawn) [CID 44143703] | – | – | – | 3.3 µM | 55% | 3.7 µM | – | – |
| COc1ccc(C2CC(c3cccc(OC)c3)=NN2c2ccc(S(N)(=O)=O)cc2)cc1 (stereo not drawn) [CID 44143698, 4-[5-(3-methoxyphenyl)-3-(4-methoxyphenyl)-3,4-dihydropyrazol-2-yl]benzenesulfonamide] | 1.5 µM | 50% | 1.6 µM | – | – | – | – | – |
| NS(=O)(=O)c1ccc(N2N=C(c3ccccc3)CC2c2ccc(Cl)cc2)cc1 (stereo not drawn) [CID 13927311] | – | – | – | 2.8 µM | 69% | 3.6 µM | – | – |
| NS(=O)(=O)c1ccc(N2N=C(c3ccccc3)CC2c2cccc(Cl)c2)cc1 (stereo not drawn) [CID 44193696] | – | – | – | 3.3 µM | 64% | 3.6 µM | – | – |
| NS(=O)(=O)c1ccc(N2N=C(c3ccccc3)CC2c2ccccc2Cl)cc1 (stereo not drawn) [CID 44193697] | – | – | – | 7.2 µM | 39% | 7.4 µM | – | – |
| COc1ccc(C2CC(c3ccsc3)=NN2c2ccc(S(N)(=O)=O)cc2)cc1 (stereo not drawn) [CID 44143713] | 7.3 µM | 47% | 7.3 µM | – | – | – | – | – |
| NS(=O)(=O)c1ccc(N2N=C(c3ccccc3)CC2c2cccc(F)c2)cc1 (stereo not drawn) [CID 12005853] | – | – | – | 4.9 µM | 71% | 9.6 µM | – | – |
| COc1ccc(C2CC(C(C)(C)C)=NN2c2ccc(S(N)(=O)=O)cc2)cc1 (stereo not drawn) [CID 44193701] | > 100 µM | 33% | > 100 µM | – | – | – | – | – |
| COc1ccc(C2CC(c3ccccc3)=NN2c2ccc(S(N)(=O)=O)cc2)cc1OC (stereo not drawn) [CID 2971684] | – | – | – | 5.7 µM | 75% | – | 6.1 µM | – |
| COc1ccc(C2=NN(c3ccc(S(N)(=O)=O)cc3)C(c3ccc(OC)cc3)C2)cc1 (stereo not drawn) [CID 15201811] | 2.6 µM | 38% | 2.5 µM | – | – | – | – | – |
| NS(=O)(=O)c1ccc(N2N=C(c3ccccc3)CC2c2ccc(Br)cc2)cc1 (stereo not drawn) [CID 13927312, 4-[3-(4-bromophenyl)-5-phenyl-3,4-dihydropyrazol-2-yl]benzene sulfonamide] | – | – | – | 1.1 µM | 56% | 1.7 µM | – | – |
| COc1cccc(C2CC(c3ccccc3)=NN2c2ccc(S(N)(=O)=O)cc2)c1 (stereo not drawn) [CID 44143701] | – | – | – | 4.8 µM | 53% | 4.3 µM | – | – |
| COc1ccc(C2CC(c3ccccc3OC)=NN2c2ccc(S(N)(=O)=O)cc2)cc1 (stereo not drawn) [CID 44143702] | 6 µM | 59% | 5.5 µM | – | – | – | – | 59% |
| NS(=O)(=O)c1ccc(N2N=C(c3ccccc3)CC2c2ccccc2Br)cc1 (stereo not drawn) [CID 44216862] | – | – | – | > 100 µM | – | > 100 µM | – | – |
